Here are results for 34 molecules from patent US20130131018A1, “SUBSTITUTED ISOQUINOLINES AND THEIR USE AS TUBULIN POLYMERIZATION INHIBITORS” (Exonhit S.A., priority 2010, published 2013).

What is called pIC50 is −log10 of the IC50, conventionally taken in molar units. A word on the IC50: it is the concentration that gives 50% inhibition.

What all share (format): cell-based
The test system of one experiment is K562 cell line. As to the kind of experiment: MTT assay: cytotoxicity against the K562 cell line. Particulars: Homo sapiens, K562 cells, 72 h, growth inhibition. Here is the method:
Assessment of Cell Viability via MTT Assay: Cytotoxicity of compounds against the K562 cell line was assessed using the [3-(4,5-dimethylthiazol-2-yl)-2,5-diphenyl tetrazolium bromide] (MTT) assay. Fifteen thousand tumor cells were seeded into wells of flat-bottomed 96-well plates. An amount of 2 μL of a dilution series of each compound dissolved in DMSO was added to 198 μL of appropriate growth medium at three replicates per concentration and the plates were incubated in a 5% CO2 incubator at 37° C. After 72 h, the number of metabolically active cells was determined by MTT assay. Absorbance of each well was measured at 550 nm on a Tecan Sunrise reader. Dose-response curves for growth inhibition were generated as a percentage of untreated control. IC50 was determined by nonlinear regression (Prism, Graph Pad Software, Inc.).
On the technique in general: Formazan colour is commonly taken as a measure of viable cells.

In another experiment the test system is HUVEC. As to the kind of experiment: Pre-established vessels disruption (capillary tubes on Matrigel). Particulars: Homo sapiens, HUVEC tubes formed 5 hours, then compounds overnight. Here is the method:
To explore the effect of the compounds on pre-established vasculature, twenty thousand cells (HUVEC) were seeded and incubated over Matrigel for 5 hours to allow the capillary tubes to form. Then, compounds were added and incubated overnight. The disappearance of existing vasculature was monitored with fluorescent microscopy.

In experiment [1] the test system is Endothelial cells (HUVEC). As to the kind of experiment: Neovessels formation inhibition (capillary tube formation on Matrigel). Particulars: Homo sapiens; for IC50: HUVEC; for pIC50: HUVEC on Matrigel, compounds overnight. Here is the method:
The capability of compounds to inhibit the formation of capillaries was evaluated in vitro. Twenty thousand Endothelial cells (HUVEC) were placed on a Matrigel matrix and allowed to form capillary tubes in the presence or absence of the compounds overnight. The cells were stained with calcein AM, and the effect of the compounds on capillary tube formation was assessed using an inverted fluorescent microscope (Nikon). The reference compound used in this assay AVE-8063 is 3-amino-deoxycombretastatin A-4.

The mark [2] stands for this setting: read-out: Neovessels Formation Inhibition Number of Branch Junctions IC50.
Where [3] appears, read: read-out: Neovessels Formation Inhibition Total Tubule Length IC50.

pIC50: −log10 of the molar value. Structures can show the parent of a compound that is named as a salt. Where two headings read alike, the source gives them in different places.

Take `COc1ccc(N(C)c2nc(C)nc3ccccc23)cc1` [Azixa, reference compound]: the pIC50 is 8.67 with K562 cell line, 8.43 in the experiment with HUVEC (read-out: Pre-established Vessels Disruption Number of Branch Junctions IC50) and 8.22 with HUVEC (read-out: Pre-established Vessels Disruption Total Tubule Length IC50). Further, the IC50 in experiment [1] (read-out: Neovessels Formation Inhibition Number of Branch Junctions IC50 (nM)) stood at 1.38 nM; in experiment [1] (read-out: Neovessels Formation Inhibition Total Tubule Length IC50 (nM)), 2.16 nM. In the case of `CCOc1ccc2c(Cc3cc(OC)c(OC)c(OC)c3)cncc2c1NS(N)(=O)=O` [Compound 8, 7-Ethoxy-4-(3,4,5-trimethoxy-benzyl)isoquinolin-8-yl]-sulfamide hydrochloride], the pIC50 in the experiment on K562 cell line is 7.27; in experiment [1] (setting [2]), 7.00; in experiment [1] (setting [3]), 6.86.

In the experiment on K562 cell line, `CCOc1ccc2c(Cc3cc(OC)c(Nc4ccccc4)c(OC)c3)cncc2c1O` [Compound 52, 4-(3,5-Dimethoxy-4-(phenylamino)benzyl)-7-ethoxyisoquinolin-8-ol hydrochloride] showed a pIC50 of 6.93. On the same count and under the same terms, the figure for `CCOc1ccc2c(C(=O)c3cc(OC)c(OCC)c(OC)c3)cncc2c1OCc1ccccc1` [Compound 55, (8-(Benzyloxy)-7-ethoxyisoquinolin-4-yl)(4-ethoxy-3,5-dimethoxyphenyl)methanone] is 6.37; for `CCCCCOc1c(OC)cc(Cc2cncc3c(O)c(OCC)ccc23)cc1OC` [Compound 63, 4-(3,5-Dimethoxy-4-(pentyloxy)benzyl)-7-ethoxyisoquinolin-8-ol hydrochloride] it is 6.67; for `CCCOc1c(OC)cc(Cc2cncc3c(OC(=S)N(C)C)c(OCC)ccc23)cc1OC` [Compound 68, O-(4-(3,5-Dimethoxy-4-propoxybenzyl)-7-ethoxyisoquinolin-8-yl) dimethylcarbamothioate hydrochloride] it is 6.82. On the same count and under the same terms, the figure for `CCOc1ccc2c(Cc3cc(Cl)c(OC)c(Cl)c3)cncc2c1O` [Compound 69, 4-(3,5-Dichloro-4-methoxybenzyl)-7-ethoxyisoquinolin-8-ol hydrochloride] is 6.62.

Consider `CCOc1ccc2c(Cc3cc(I)c(OC)c(I)c3)cncc2c1O` [Compound 70, 4-(3,5-Diiodo-4-methoxybenzyl)-7-ethoxyisoquinolin-8-ol hydrochloride], for which the pIC50 in the experiment with K562 cell line was 7.03.

`CCOc1ccc2c(Cc3cc(Br)c(OC)c(OC)c3)cncc2c1O` [Compound 71, 4-(3-Bromo-4,5-dimethoxybenzyl)-7-ethoxyisoquinolin-8-ol hydrochloride] had a pIC50 in the experiment with K562 cell line of 7.59. Molecule `CCOc1ccc2c(Cc3cc(I)c(OC)c(OC)c3)cncc2c1O` [Compound 72, 7-Ethoxy-4-(3-iodo-4,5-dimethoxybenzyl)isoquinolin-8-ol hydrochloride] showed a pIC50 with K562 cell line of 7.74. Still for that read-out and setting: under `CCOc1ccc2c(Cc3cc(OC)c(CC)c(OC)c3)cncc2c1O` [Compound 73, 7-Ethoxy-4-(4-ethyl-3,5-dimethoxybenzyl)isoquinolin-8-ol hydrochloride] stands 6.48. Consider `CCOc1ccc2c(Cc3cc(OC)c(OCC)c([N+](=O)[O-])c3)cncc2c1O` [Compound 74, 7-ethoxy-4-(4-ethoxy-3-methoxy-5-nitrobenzyl)isoquinolin-8-ol hydrochloride], for which, in the experiment on K562 cell line, the pIC50 was 6.62. On the same count and under the same terms, the figure for `CCOc1ccc2c(Cc3cc(N)c(OCC)c(OC)c3)cncc2c1O` [Compound 75, 4-(3-Amino-4-ethoxy-5-methoxybenzyl)-7-ethoxyisoquinolin-8-ol hydrochloride] is 6.63.

In the experiment with K562 cell line, `CCOc1ccc2c(Cc3cc(OC)c(N4CCCC4)c(OC)c3)cncc2c1O` [Compound 76, 4-(3,5-Dimethoxy-4-(pyrrolidin-1-yl)benzyl)-7-ethoxyisoquinolin-8-ol hydrochloride] showed a pIC50 of 6.51. Same read-out and setting: the figure for `CCOc1ccc2c(Cc3cc(Br)c(OCC)c(OC)c3)cncc2c1O` [Compound 77, 4-(3-Bromo-4-ethoxy-5-methoxybenzyl)-7-ethoxyisoquinolin-8-ol hydrochloride] is 7.31; for `CCOc1ccc2c(C(=O)c3cc(OC)c(OCC(C)C)c(OC)c3)cncc2c1O` [Compound 79, (7-Ethoxy-8-hydroxyisoquinolin-4-yl)(4-isobutoxy-3,5-dimethoxyphenyl)methanone hydrochloride] it is 7.92; for `CCOc1ccc2c(Cc3cc(OC)c(OC)c(OCC(F)(F)F)c3)cncc2c1O` [Compound 87, 4-(3,4-Dimethoxy-5-(2,2,2-trifluoroethoxy)benzyl)-7-ethoxyisoquinolin-8-ol hydrochloride] it is 6.60.

The molecule `CCOc1ccc2c(Cc3cc(OC)c(OC)c(OC)c3)cncc2c1NC` [Compound 92, 7-Ethoxy-N-methyl-4-(3,4,5-trimethoxybenzyl)isoquinolin-8-amine dihydrochloride] had a pIC50 in the experiment on K562 cell line of 6.03. The same measure, in the same setting: the figure for `CCOc1ccc2c(Cc3cc(OC)c(OC)c(OC)c3)cncc2c1NCC(=O)OC` [Compound 93, Methyl 2-(7-ethoxy-4-(3,4,5-trimethoxybenzyl)isoquinolin-8-ylamino)acetate dihydrochloride] is 6.48; for `C=C(c1cc(OC)c(OC)c(OC)c1)c1cncc2c(O)c(OCC)ccc12` [Compound 95, 7-Ethoxy-4-(1-(3,4,5-trimethoxyphenyl)vinyl)isoquinolin-8-ol hydrochloride] it is 7.30; for `CCOc1ccc2c(Cc3cc(OC)c(OC)c([N+](=O)[O-])c3)cncc2c1O` [Compound 103, 4-(3,4-Dimethoxy-5-nitrobenzyl)-7-ethoxyisoquinolin-8-ol hydrochloride] it is 6.86. The molecule `CCOc1ccc2c(C(=O)c3cc(OC)c(OC)c(OC)c3)cncc2c1NS(=O)(=O)NC(=O)OC(C)(C)C` [Compound 104, tert-Butyl N-(7-ethoxy-4-(3,4,5-trimethoxybenzoyl)isoquinolin-8-yl)sulfamoylcarbamate] showed a pIC50 with K562 cell line of 7.41. With `CCOc1ccc2c(Cc3cc(OC)c(OC)c(OC)c3)cncc2c1Cl` [Compound 106, 8-Chloro-7-ethoxy-4-(3,4,5-trimethoxybenzyl)isoquinoline hydrochloride], in the experiment on K562 cell line, the pIC50 is 6.05. The same measure, in the same setting: under `CCOc1ccc2c(Cc3cc(OC)c(OC)c(OC)c3)cncc2c1N=[N+]=[N-]` [Compound 107, 8-Azido-7-ethoxy-4-(3,4,5-trimethoxybenzyl)isoquinoline] stands 6.24; under `CCOc1ccc2c(C(=O)c3cc(OC)c(OC)c(OC)c3)cncc2c1N=[N+]=[N-]` [Compound 108, 8-Azido-7-ethoxy-4-(3,4,5-trimethoxybenzoyl)isoquinoline], 7.13. The same measure, in the same setting: the figure for `CCOc1ccc2c(C(=O)c3cc(OC)c(OC)c(OC)c3)cncc2c1OC(=O)C(C)(C)C` [Compound 109, 7-Ethoxy-4-(3,4,5-trimethoxybenzoyl)isoquinolin-8-yl pivalate] is 7.17; for `CCOc1ccc2c(Cc3cc(OC)c(OC)c(OC)c3Cl)cncc2c1O` [Compound 110, 4-(2-Chloro-3,4,5-trimethoxybenzyl)-7-ethoxyisoquinolin-8-ol hydrochloride] it is 7.17. On the same count and under the same terms, under `CCOc1ccc2c(C(=O)c3cc(OC)c(OC)c(OC)c3)cncc2c1NC(C)=O` [Compound 111, N-(7-Ethoxy-4-(3,4,5-trimethoxybenzoyl)isoquinolin-8-yl)acetamide hydrochloride] stands 7.01.

Consider `CCOc1ccc2c(C(=O)c3cc(OC)c(OC)c(OC)c3)cncc2c1NC(=O)OCC(C)C` [Compound 113, Isobutyl (7-ethoxy-4-(3,4,5-trimethoxybenzoyl)isoquinolin-8-yl)carbamate hydrochloride], for which the pIC50 in the experiment on K562 cell line is 6.64.

Turning to `CCOc1ccc2c(C(=O)c3cc(OC)c(OC)c(OC)c3)cncc2c1NC(=O)[C@@H](N)Cc1ccccc1` [Compound 114, (S)-2-Amino-N-(7-ethoxy-4-(3,4,5-trimethoxybenzoyl)isoquinolin-8-yl)-3-phenylpropanamide dihydrochloride], in the experiment on K562 cell line, the pIC50 was 7.03.

`CCOc1ccc2c(C(=O)c3cc(Br)c(OC)c(OC)c3)cncc2c1OC(C)=O` [Compound 115, 4-(3-Bromo-4,5-dimethoxybenzoyl)-7-ethoxyisoquinolin-8-yl acetate]: the pIC50 in the experiment on K562 cell line was 7.68.

As for `CCOc1ccc2c(C(=O)c3cc(Br)c(OC)c(OC)c3)cncc2c1O` [Compound 116, (3-Bromo-4,5-dimethoxyphenyl)(7-ethoxy-8-hydroxyisoquinolin-4-yl)methanone hydrochloride], the pIC50 in the experiment with K562 cell line is 7.06.

With `O=C(Nc1ccncc1)C(=O)c1cn(Cc2ccc(Cl)cc2)c2ccccc12` [Indibulin, reference compound], the pIC50 in the experiment on K562 cell line is 6.71. With `CC(=O)O[C@H]1C(=O)[C@@]2(C)[C@H]([C@H](OC(=O)c3ccccc3)[C@]3(O)C[C@H](OC(=O)[C@H](O)[C@@H](NC(=O)c4ccccc4)c4ccccc4)C(C)=C1C3(C)C)[C@]1(OC(C)=O)CO[C@@H]1C[C@@H]2O` [Taxol, reference compound], the negative-log IC50 (pIC50) with K562 cell line was 8.16; in experiment [1] (setting [2]) it was 9.10; in experiment [1] (setting [3]), 8.15.
